In patent US9902702B2, “Spirocycloheptanes as inhibitors of rock” (BRISTOL-MYERS SQUIBB COMPANY, priority 2014, dated 2018):
Where a name gives a salt, the structure may show the parent alone. Read-outs that look alike come from different tables or passages of the source.

Assays:
ROCK2 = ROCK2 (Homo sapiens, UniProt O75116); experiment: ROCK assay: phosphorylation of FITC peptide substrate, LABCHIP 3000 mobility shift; format: biochemical; settings: 5 μM ATP, 1.5 μM peptide substrate; read-out: ROCK2 Activity (ROCK IC50 range)
ROCK2, sequence (O75116 whole entry, species assumed): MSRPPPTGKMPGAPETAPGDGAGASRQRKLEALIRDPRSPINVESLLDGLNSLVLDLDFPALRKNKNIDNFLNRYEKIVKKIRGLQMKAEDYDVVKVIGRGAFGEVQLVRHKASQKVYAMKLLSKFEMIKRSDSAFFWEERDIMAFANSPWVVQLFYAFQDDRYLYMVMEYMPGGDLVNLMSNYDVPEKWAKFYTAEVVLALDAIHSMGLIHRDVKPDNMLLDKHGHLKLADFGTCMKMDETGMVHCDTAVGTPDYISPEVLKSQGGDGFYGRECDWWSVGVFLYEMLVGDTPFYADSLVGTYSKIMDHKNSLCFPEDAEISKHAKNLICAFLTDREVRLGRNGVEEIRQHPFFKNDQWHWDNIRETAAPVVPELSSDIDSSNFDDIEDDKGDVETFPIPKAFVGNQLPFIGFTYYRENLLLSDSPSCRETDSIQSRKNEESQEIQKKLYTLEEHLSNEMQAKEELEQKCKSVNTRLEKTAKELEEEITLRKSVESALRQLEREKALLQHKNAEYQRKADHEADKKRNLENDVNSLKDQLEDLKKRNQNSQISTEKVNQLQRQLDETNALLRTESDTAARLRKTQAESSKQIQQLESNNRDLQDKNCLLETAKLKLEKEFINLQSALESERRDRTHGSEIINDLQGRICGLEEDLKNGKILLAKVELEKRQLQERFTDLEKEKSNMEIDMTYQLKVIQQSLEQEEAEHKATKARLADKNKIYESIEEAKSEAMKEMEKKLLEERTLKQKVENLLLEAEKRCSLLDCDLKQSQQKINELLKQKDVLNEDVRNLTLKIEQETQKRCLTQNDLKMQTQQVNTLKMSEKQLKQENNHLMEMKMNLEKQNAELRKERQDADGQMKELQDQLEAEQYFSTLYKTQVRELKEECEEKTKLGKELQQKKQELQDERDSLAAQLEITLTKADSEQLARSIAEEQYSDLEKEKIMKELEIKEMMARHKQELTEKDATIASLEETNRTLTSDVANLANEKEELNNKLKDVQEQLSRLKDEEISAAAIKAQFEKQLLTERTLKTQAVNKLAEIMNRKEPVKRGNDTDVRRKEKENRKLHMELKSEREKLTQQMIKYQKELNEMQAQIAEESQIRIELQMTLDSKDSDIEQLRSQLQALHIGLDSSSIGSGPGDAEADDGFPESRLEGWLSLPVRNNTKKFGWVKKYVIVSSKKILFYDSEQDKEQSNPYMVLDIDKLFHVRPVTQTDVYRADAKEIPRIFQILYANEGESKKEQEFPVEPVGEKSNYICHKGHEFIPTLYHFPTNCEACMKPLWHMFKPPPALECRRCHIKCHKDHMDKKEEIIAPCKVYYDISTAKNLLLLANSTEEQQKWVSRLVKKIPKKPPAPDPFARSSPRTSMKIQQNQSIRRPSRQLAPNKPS
Outline: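 IC50 values come from curve-fitting percent kinase inhibition across a compound dilution series. The reaction is started with Rho kinase variant in HEPES pH 7.5 buffer with MgCl2, Brij-35 and DTT, with 5 μM ATP, 1.5 μM FITC-labelled peptide and under 2% DMSO. After EDTA quench, product and substrate are separated by microfluidic mobility shift.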

[1] = system: spontaneously hypertensive rat, renal hypertensive rat and deoxycortisone acetate salt hypertensive rat models; settings: cited from earlier work
neointimal formation = settings: rats, balloon injury model; cited from earlier work
[2] = system: congestive heart failure in Dahl salt-sensitive rats; settings: cited from earlier work
[3] = system: IL-1 beta-induced coronary stenosis; settings: porcine model, long term treatment; cited from earlier work
rat stroke model = settings: cited from earlier work

Compound: O=C(NC1CC2(C1)CC(c1n[nH]c(=O)c3ccccc13)C2)c1cnn2ccncc12 [Example 467, N-((aR)-6-(4-oxo-3,4-dihydrophthalazin-1-yl)spiro[3.3]heptan-2-yl)pyrazolo[1,5-a] pyrazine-3-carboxamide]
- IC50 (ROCK2): 15.1 to 100 nM

Compound: O=C(NC1CC2(C1)CC(c1n[nH]c(=O)c3ccccc13)C2)C1Cc2cc(Br)ccc2N1 [Example 468, 5-bromo-N-((aR)-6-(4-oxo-3,4-dihydrophthalazin-1-yl)spiro[3.3]heptan-2-yl)indoline-2-carboxamide,TFA]
- IC50 (ROCK2): 100 to 2100 nM

Compound: CC(C)(Oc1ccc2c(C(=O)N[C@H]3CC4(C3)C[C@H](c3n[nH]c(=O)c5ccccc53)C4)cnn2c1)C(=O)O (stereo partly drawn) [Example 469, 2-methyl-2-((3-(((aR)-6-(4-oxo-3,4-dihydrophthalazin-1-yl)spiro[3.3]heptan-2-yl)carbamoyl)pyrazolo[1,5-a]pyridin-6-yl)oxy)propanoic acid]
- IC50 (ROCK2): 15.1 to 100 nM

Compound: O=C(N[C@H]1CC2(C1)C[C@H](c1n[nH]c(=O)c3ccccc31)C2)c1cnc2cc(N3CCOCC3)ccn12 (stereo partly drawn) [Example 470, 7-morpholino-N-((aR)-6-(4-oxo-3,4-dihydrophthalazin-1-yl)spiro[3.3]heptan-2-yl)imidazo[1,2-a]pyridine-3-carboxamide, TFA]
- IC50 (ROCK2): 0.2 to 2 nM

Compound: [H][C@]1(c2n[nH]c(=O)c3ccccc32)C[C@]2(C[C@@H](NC(=O)c3cnc4cc(OC5CCC(F)(F)CC5)ccn34)C2)C1 (stereo partly drawn) [Example 471, 7-((4,4-difluoro-cyclohexyl)oxy)-N-((aR)-6-(4-oxo-3,4-dihydro-phthalazin-1-yl)spiro[3.3]heptan-2-yl)imidazo[1,2-a]pyridine-3-carboxamide, TFA]
- IC50 (ROCK2): 2.01 to 5 nM

Compound: C[C@@H](N)[C@H]1CC[C@H](C(=O)Nc2ccncc2)CC1 [Example Y-27632]
- blood pressure ([1]; control rats): only a minor effect on blood pressure
- blood pressure ([1]; three rat models of hypertension): significantly decrease blood pressure
- neointimal formation (neointimal formation): inhibited neointimal formation
- ventricular hypertrophy, fibrosis and function [2]: improve ventricular hypertrophy, fibrosis and function

Compound: O=S(=O)(c1cccc2cnccc12)N1CCCNCC1 [fasudil]
- coronary constrictive remodeling [3]: promote a regression of coronary constrictive remodeling
- coronary stenosis [3]: progressively reduce coronary stenosis
- infarct size and neurologic deficit (rat stroke model): reduce both the infarct size and neurologic deficit
